Results published in PubChem BioAssay AID308 (DTP/NCI, 2004).
“And” between values parts separate entries of the source, which are not always exact repeats. Equal entries are not always repeated. Inconclusive results and toxic doses are left out.

Tested on: BDF1 mice, L1210 6-MP/6-TG resistant leukemia ip, survival T/C
Experiment: NCI In Vivo Anticancer Drug Screen. Data for tumor model L1210 Leukemia resistant to 6-MP and 6-Thioguanine; NSC 755, NSC 752 (intraperitoneal) in B6D2F1 (BDF1) mice
Conditions: endpoint: mean survival time, higher = longer survival
Protocol: The antitumor activity of compounds was measured in mice bearing transplantable tumors. Survival or tumor size were measured and the results are expressed as the measurement made in the treated group (T) divided by the measurement made in the vehicle treated control group (C). The tumor model used in this assay is L1210 Leukemia resistant to 6-MP and 6-Thioguanine; NSC 755, NSC 752 (intraperitoneal) in B6D2F1 (BDF1) mice

[1] = dose: 3.75 mg/kg/injection, schedule: Q01DX Z (ip), vehicle: carboxymethylcellulose (CMC)
[2] = dose: 5.0 mg/kg/injection, schedule: Q01DX Z (ip), vehicle: carboxymethylcellulose (CMC)
[3] = dose: 7.5 mg/kg/injection, schedule: Q01DX Z (ip), vehicle: carboxymethylcellulose (CMC)
[4] = dose: 125.0 mg/kg/injection, schedule: Q01DX Z (ip), vehicle: carboxymethylcellulose (CMC)
[5] = dose: 250.0 mg/kg/injection, schedule: Q01DX Z (ip), vehicle: carboxymethylcellulose (CMC)

NC(Cc1ccc(N(CCCl)CCCl)cc1)C(=O)O (configuration not stated)
T/C (dose: 0.5 mg/kg/injection, schedule: Q01DX Z (ip), vehicle: carboxymethylcellulose (CMC)): 163 % of control
T/C (dose: 0.75 mg/kg/injection, schedule: Q01DX Z (ip), vehicle: carboxymethylcellulose (CMC)): 155 % of control
T/C (dose: 1.0 mg/kg/injection, schedule: Q01DX Z (ip), vehicle: carboxymethylcellulose (CMC)): 188 % of control
T/C (dose: 2.5 mg/kg/injection, schedule: Q01DX Z (ip), vehicle: carboxymethylcellulose (CMC)): 195 % of control
T/C [1]: 195 % of control
T/C [2]: 155 % of control
T/C [3]: 119 % of control

O=c1cn[nH]c(=O)[nH]1
T/C [4]: 109 % of control
T/C [5]: 115 % of control
T/C (dose: 375.0 mg/kg/injection, schedule: Q01DX Z (ip), vehicle: carboxymethylcellulose (CMC)): 121 % of control
T/C (dose: 500.0 mg/kg/injection, schedule: Q01DX Z (ip), vehicle: carboxymethylcellulose (CMC)): 121 % of control

CC(C)n1cnc2c(=S)nc[nH]c21
T/C (dose: 2.5 mg/kg/injection, schedule: Q01DX015 (ip), vehicle: carboxymethylcellulose (CMC)): 96 % of control
T/C (dose: 5.0 mg/kg/injection, schedule: Q01DX015 (ip), vehicle: carboxymethylcellulose (CMC)): 96 % of control
T/C (dose: 10.0 mg/kg/injection, schedule: Q01DX015 (ip), vehicle: carboxymethylcellulose (CMC)): 96 % of control
T/C (dose: 20.0 mg/kg/injection, schedule: Q01DX015 (ip), vehicle: carboxymethylcellulose (CMC)): 94 % of control
T/C (dose: 42.0 mg/kg/injection, schedule: Q01DX015 (ip), vehicle: carboxymethylcellulose (CMC)): 86 % of control and 100 % of control
T/C (dose: 63.0 mg/kg/injection, schedule: Q01DX015 (ip), vehicle: carboxymethylcellulose (CMC)): 86 % of control
T/C (dose: 95.0 mg/kg/injection, schedule: Q01DX015 (ip), vehicle: carboxymethylcellulose (CMC)): 86 % of control

CN(C)c1nc(N(C)C)nc(N(C)C)n1
T/C (dose: 4.3 mg/kg/injection, schedule: Q01DX Z (ip), vehicle: other): 101 % of control
T/C (dose: 8.7 mg/kg/injection, schedule: Q01DX Z (ip), vehicle: other): 111 % of control
T/C (dose: 17.5 mg/kg/injection, schedule: Q01DX Z (ip), vehicle: other): 109 % of control
T/C (dose: 35.0 mg/kg/injection, schedule: Q01DX Z (ip), vehicle: other): 111 % of control
T/C (dose: 50.0 mg/kg/injection, schedule: Q01DX Z (ip), vehicle: other): 110 % of control
T/C (dose: 100.0 mg/kg/injection, schedule: Q01DX Z (ip), vehicle: other): 98 % of control

CSc1ncc(Br)c(Sc2nc(N)nc3nc[nH]c23)n1
T/C (dose: 3.12 mg/kg/injection, schedule: Q01DX Z (ip), vehicle: carboxymethylcellulose (CMC)): 100 % of control
T/C (dose: 6.25 mg/kg/injection, schedule: Q01DX Z (ip), vehicle: carboxymethylcellulose (CMC)): 95 % of control
T/C (dose: 12.5 mg/kg/injection, schedule: Q01DX Z (ip), vehicle: carboxymethylcellulose (CMC)): 88 % of control

N=C(N)c1ccc(Nc2ccc(C(=N)N)cc2)cc1
T/C (dose: 2.0 mg/kg/injection, schedule: Q01DX Z (ip), vehicle: water): 112 % of control
T/C (dose: 4.0 mg/kg/injection, schedule: Q01DX Z (ip), vehicle: water): 102 % of control
T/C (dose: 6.0 mg/kg/injection, schedule: Q01DX Z (ip), vehicle: water): 104 % of control
T/C (dose: 8.0 mg/kg/injection, schedule: Q01DX Z (ip), vehicle: water): 106 % of control
T/C (dose: 9.37 mg/kg/injection, schedule: Q01DX Z (ip), vehicle: water): 104 % of control
T/C (dose: 18.75 mg/kg/injection, schedule: Q01DX Z (ip), vehicle: water): 100 % of control

O=C(Nc1ccc(C2=NCCN2)cc1)c1cccc(C(=O)Nc2ccc(C3=NCCN3)cc2)c1
T/C (dose: 2.5 mg/kg/injection, schedule: Q01DX Z (ip), vehicle: water): 110 % of control
T/C (dose: 10.0 mg/kg/injection, schedule: Q01DX Z (ip), vehicle: water): 300 % of control
T/C (dose: 20.0 mg/kg/injection, schedule: Q01DX Z (ip), vehicle: water): 187 % of control

CC(=O)OCC1OC(n2cnc3c(=S)nc[nH]c32)C(OC(C)=O)C1OC(C)=O (configuration not stated)
T/C (dose: 25.0 mg/kg/injection, schedule: Q01DX Z (ip), vehicle: carboxymethylcellulose (CMC)): 104 % of control
T/C (dose: 50.0 mg/kg/injection, schedule: Q01DX Z (ip), vehicle: carboxymethylcellulose (CMC)): 111 % of control
T/C (dose: 100.0 mg/kg/injection, schedule: Q01DX Z (ip), vehicle: carboxymethylcellulose (CMC)): 108 % of control
T/C (dose: 200.0 mg/kg/injection, schedule: Q01DX Z (ip), vehicle: carboxymethylcellulose (CMC)): 98 % of control

CS(=O)(=O)OCC(O)C(O)COS(C)(=O)=O (configuration not stated)
T/C (dose: 62.0 mg/kg/injection, schedule: Q01DX Z (ip), vehicle: carboxymethylcellulose (CMC)): 103 % of control
T/C [4]: 101 % of control
T/C [5]: 122 % of control

C1CN1c1nc(N2CC2)nc(N2CC2)n1
T/C (dose: 0.25 mg/kg/injection, schedule: Q01DX Z (ip), vehicle: saline): 118 % of control
T/C (dose: 1.0 mg/kg/injection, schedule: Q01DX Z (ip), vehicle: saline): 109 % of control

CN(C)[C@@H]1C(=O)C(C(=O)NCc2nc3[nH]cnc(=S)c3[nH]2)=C(O)[C@@]2(O)C(=O)C3=C(O)c4c(O)cccc4[C@@](C)(O)[C@H]3C[C@@H]12
T/C (dose: 50.0 mg/kg/injection, schedule: Q01DX009 (ip), vehicle: carboxymethylcellulose (CMC)): 105 % of control
T/C (dose: 100.0 mg/kg/injection, schedule: Q01DX009 (ip), vehicle: carboxymethylcellulose (CMC)): 104 % of control
T/C (dose: 400.0 mg/kg/injection, schedule: Q01DX009 (ip), vehicle: carboxymethylcellulose (CMC)): 93 % of control

CC1CCOS(=O)O1 (configuration not stated)
T/C (dose: 12.5 mg/kg/injection, schedule: Q01DX Z (ip), vehicle: saline): 101 % of control
T/C (dose: 25.0 mg/kg/injection, schedule: Q01DX Z (ip), vehicle: saline): 106 % of control
T/C (dose: 37.5 mg/kg/injection, schedule: Q01DX Z (ip), vehicle: saline): 97 % of control
T/C (dose: 75.0 mg/kg/injection, schedule: Q01DX Z (ip), vehicle: saline): 99 % of control
T/C (dose: 100.0 mg/kg/injection, schedule: Q01DX Z (ip), vehicle: saline): 91 % of control

CN(N=O)C(=O)NCCSc1ncnc2nc[nH]c12
T/C (dose: 88.0 mg/kg/injection, schedule: Q01DX015 (ip), vehicle: other): 104 % of control
T/C (dose: 132.0 mg/kg/injection, schedule: Q01DX015 (ip), vehicle: other): 108 % of control
T/C (dose: 200.0 mg/kg/injection, schedule: Q01DX015 (ip), vehicle: other): 108 % of control
T/C (dose: 300.0 mg/kg/injection, schedule: Q01DX015 (ip), vehicle: other): 102 % of control

CN(C)[C@@H]1C(=O)C(C(=O)NCNc2nc3n[nH]nc3c(=O)[nH]2)=C(O)[C@@]2(O)C(=O)C3=C(O)c4c(O)cccc4[C@@](C)(O)[C@H]3C[C@@H]12
T/C (dose: 50.0 mg/kg/injection, schedule: Q01DX009 (ip), vehicle: saline): 100 % of control
T/C (dose: 100.0 mg/kg/injection, schedule: Q01DX009 (ip), vehicle: saline): 104 % of control
T/C (dose: 200.0 mg/kg/injection, schedule: Q01DX009 (ip), vehicle: saline): 100 % of control
T/C (dose: 400.0 mg/kg/injection, schedule: Q01DX009 (ip), vehicle: saline): 100 % of control

Nc1nc(=S)c2ncn(C3OC(CO)C(O)C3O)c2[nH]1 (configuration not stated)
T/C [1]: 96 % of control
T/C [2]: 93 % of control
T/C [3]: 107 % of control
T/C (dose: 10.0 mg/kg/injection, schedule: Q01DX Z (ip), vehicle: carboxymethylcellulose (CMC)): 93 % of control

O=C(Nc1ccc(C2=NCCN2)cc1)c1ccc(C(=O)Nc2ccc(C3=NCCN3)cc2)c([N+](=O)[O-])c1
T/C (dose: 0.5 mg/kg/injection, schedule: Q01DX Z (ip), vehicle: methylcellulose (MC)): 98 % of control
T/C (dose: 1.0 mg/kg/injection, schedule: Q01DX Z (ip), vehicle: methylcellulose (MC)): 93 % of control
T/C (dose: 2.0 mg/kg/injection, schedule: Q01DX Z (ip), vehicle: carboxymethylcellulose (CMC)): 181 % of control
T/C (dose: 2.0 mg/kg/injection, schedule: Q01DX Z (ip), vehicle: methylcellulose (MC)): 112 % of control
T/C (dose: 4.0 mg/kg/injection, schedule: Q01DX Z (ip), vehicle: carboxymethylcellulose (CMC)): 233 % of control
T/C (dose: 6.0 mg/kg/injection, schedule: Q01DX Z (ip), vehicle: carboxymethylcellulose (CMC)): 186 % of control
T/C (dose: 6.0 mg/kg/injection, schedule: Q01DX Z (ip), vehicle: methylcellulose (MC)): 224 % of control
T/C (dose: 8.0 mg/kg/injection, schedule: Q01DX Z (ip), vehicle: carboxymethylcellulose (CMC)): 124 % of control and 232 % of control
T/C (dose: 12.0 mg/kg/injection, schedule: Q01DX Z (ip), vehicle: carboxymethylcellulose (CMC)): 173 % of control
T/C (dose: 27.0 mg/kg/injection, schedule: Q01DX Z (ip), vehicle: carboxymethylcellulose (CMC)): 107 % of control
T/C (dose: 27.0 mg/kg/injection, schedule: Q02DX010 (ip), vehicle: saline): 224 % of control
T/C (dose: 60.0 mg/kg/injection, schedule: Q02DX010 (ip), vehicle: saline): 111 % of control
